Test results published in PubChem BioAssay (NCI).
Values joined by “and” are separate entries in the source; they are usually repeats but may differ in a detail not shown here. Equal values may be shown once.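 Five compound concentrations were applied to cells in 96-well plates for 48 hours; endpoints were derived by simple linear interpolation of the resulting dose-response curve. At the GI50, growth is halved. TGI: total growth inhibition.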

Legend:
Test in all cases: NCI tumour cell line growth inhibition, 48 h
SF-268 CNS = test system: SF-268 CNS
UACC-257 melanoma = test system: UACC-257 melanoma
MDA-MB-231 breast = test system: MDA-MB-231 breast
786-0 renal = test system: 786-0 renal
MCF7 breast = test system: MCF7 breast
SF-539 CNS = test system: SF-539 CNS
SF-295 CNS = test system: SF-295 CNS
U251 CNS = test system: U251 CNS
RPMI-8226 leukemia = test system: RPMI-8226 leukemia
SK-MEL-5 melanoma = test system: SK-MEL-5 melanoma

Structure (SMILES) | GI50 (SF-268 CNS) | TGI (SF-268 CNS) | GI50 (UACC-257 melanoma) | TGI (UACC-257 melanoma) | GI50 (MDA-MB-231 breast) | TGI (MDA-MB-231 breast) | GI50 (786-0 renal) | TGI (786-0 renal) | GI50 (MCF7 breast) | TGI (MCF7 breast) | GI50 (SF-539 CNS) | TGI (SF-539 CNS) | GI50 (SF-295 CNS) | TGI (SF-295 CNS) | GI50 (U251 CNS) | TGI (U251 CNS) | GI50 (RPMI-8226 leukemia) | TGI (RPMI-8226 leukemia) | GI50 (SK-MEL-5 melanoma) | TGI (SK-MEL-5 melanoma)
Fc1ccc2[nH]cc(Cc3c[nH]c4ccc(F)cc34)c2c1 | 17.5 µM | 77.6 µM | 15.7 µM | 30.8 µM | 16.7 µM | 46.5 µM | 17.1 µM | 35.6 µM | 35.6 µM | > 100 µM | 15.7 µM | 33.6 µM | 20.6 µM | 47.9 µM | 19.7 µM | 44.8 µM | 21 µM | 62.2 µM | 17.5 µM | 35.3 µM
COc1ccc(C(=O)/C=C/c2ccc(Cl)cc2)cc1S(=O)(=O)Nc1c(N)nc(SC)[nH]c1=O | 2.69 µM | 7.32 µM | 8.27 µM | 21.4 µM | 3.42 µM | 10.5 µM | 1.95 µM | 4.13 µM | 1.97 µM | 8.25 µM | 2.1 µM | 5 µM | 2.72 µM | 8.91 µM | 1.58 µM | 3.12 µM | 2.17 µM | 5.97 µM | 2.72 µM | 9.59 µM
O=S(=O)(c1ccc(NC(=S)NCc2cccnc2)cc1)N1CCCCC1 | 17.2 µM | > 100 µM | 42.6 µM | > 100 µM | 26.4 µM | > 100 µM | > 100 µM | > 100 µM | 12.7 µM | > 100 µM | 0.446 µM | > 100 µM | 13 µM | > 100 µM | 1.82 µM | > 100 µM | 2.17 µM | > 100 µM | 12.1 µM | 45.8 µM
Cc1cc(N2CCCCC2)nc(N(CCNc2ccnc3cc(Cl)ccc23)Cc2ccco2)n1 | 2.57 µM | 6.53 µM | 2.35 µM | 5.79 µM | 1.83 µM | 3.53 µM | 1.66 µM | 3.07 µM | 1.59 µM | 3.19 µM | 2.05 µM | 4.2 µM | 1.51 µM | 3.12 µM | 1.73 µM | 3.19 µM | 2 µM | 4.55 µM | 1.68 µM | 3.07 µM
N#CSc1ncnc2nc[nH]c12 | 4.24 µM | > 41.1 µM | 26.2 µM | > 100 µM | 11.2 µM | > 100 µM | 3.53 µM | > 100 µM | 2.35 µM | > 79.4 µM | 4.14 µM | > 65.9 µM | 2.53 µM | > 72.6 µM | 32.4 µM | > 100 µM | 4.13 µM | > 100 µM | 15.2 µM | > 100 µM
COc1cc2nc(Cl)nc(Nc3cccc(C(=O)/C=C/c4ccccc4)c3)c2cc1OC | 4.99 µM | 81.4 µM | > 31.2 µM | > 100 µM | 6.4 µM | > 92.4 µM | 3.05 µM | 15 µM | 1.81 µM | > 100 µM | 3.82 µM | 19.2 µM | – | > 44.2 µM | 2.97 µM | > 38.1 µM | 0.622 µM | 3.48 µM | > 22.8 µM | > 100 µM
O=C(Nc1cccc(Cl)c1)Nc1ncc(CCNc2ncnc3ccsc23)s1 | 5.85 µM and 2.75 µM | 29.6 µM and > 10 µM | 2.12 µM and 1.22 µM | 11.4 µM and 9.27 µM | 3.38 µM and 2.67 µM | 17.4 µM and > 10 µM | 7.55 µM and 6.41 µM | 41.1 µM and > 10 µM | 1.17 µM and 1.31 µM | 15 µM and > 10 µM | 0.635 µM and 0.53 µM | 16.9 µM and > 10 µM | 0.215 µM and 0.593 µM | 16.9 µM and > 10 µM | 4.68 µM and 2.16 µM | > 45.7 µM | 2.98 µM and 1.32 µM | 33.5 µM and 5.81 µM | 1.39 µM and 1.59 µM | 2.83 µM and 4.16 µM
CCN1C(=O)N(CC)C2C1NN=c1s/c(=C3\C(=O)N(C(C)C)c4ccccc43)c(=O)n12 (stereo not given) | 0.722 µM | > 70.3 µM | > 37.7 µM | > 100 µM | 0.434 µM | 15.4 µM | 0.852 µM | 17.7 µM | 0.396 µM | > 100 µM | 0.24 µM | 0.706 µM | 0.246 µM | 0.83 µM | 0.378 µM | > 57.7 µM | 0.429 µM | > 100 µM | 0.394 µM | 2.33 µM
CCCN(Cc1ccc(F)cc1)c1ccc(CO)c(Cl)c1 | 16.1 µM | 32.1 µM | 0.207 µM | 0.776 µM | 13 µM | 27.3 µM | 4.77 µM | 19.7 µM | 0.375 µM | 12.9 µM | 15.3 µM | 29 µM | 1.41 µM | 9.65 µM | 2.48 µM | 16.2 µM | 1.91 µM | 14 µM | 6.51 µM | 19.8 µM
Cn1c(=O)c2[nH]c(/N=N/N3CCN(CCO)CC3)nc2n(C)c1=O | – | > 100 µM | – | > 100 µM | – | > 100 µM | – | > 100 µM | – | > 100 µM | – | > 100 µM | – | > 100 µM | – | > 100 µM | – | > 100 µM | – | > 100 µM
O=C(CCl)c1ccc([N+](=O)[O-])o1 | 2.54 µM | 6.8 µM | 1.83 µM | 3.93 µM | 4.9 µM | 13.7 µM | 3.32 µM | 10.9 µM | 1.87 µM | 5.82 µM | 2.28 µM | 5.03 µM | 5.26 µM | 17.4 µM | 1.95 µM | 4.37 µM | 0.873 µM | – | 4.11 µM | 15.7 µM
NC(=O)[C@H]1CCN(c2ncnc(N)c2F)C[C@@H]1N1CCC[C@@H](Nc2cc(Cl)cc(C(F)(F)F)c2)C1=O | 23.8 µM | > 100 µM | 20.3 µM | 59.7 µM | 14.3 µM | 32.6 µM | 21.8 µM | > 100 µM | 13.1 µM | 52.4 µM | 14.5 µM | 33.2 µM | 17.1 µM | 41.8 µM | 26.3 µM | > 100 µM | 16.8 µM | 56.3 µM | 16.3 µM | 30 µM
CCn1c(-c2nonc2N)nc2cncc(C(=O)N3CCNCC3)c21 | > 25 µM | > 25 µM | > 25 µM | > 25 µM | > 25 µM | > 25 µM | > 25 µM | > 25 µM | > 25 µM | > 25 µM | > 25 µM | > 25 µM | > 25 µM | > 25 µM | > 25 µM | > 25 µM | > 25 µM | > 25 µM | > 25 µM | > 25 µM
Nc1nc(/C=C\c2ccc([N+](=O)[O-])o2)nc(N2CCN(c3ccccc3)CC2)n1 | 11.7 µM | > 100 µM | 11.5 µM | 41.3 µM | 3.51 µM | 13.3 µM | 5.5 µM | 25.8 µM | 3.07 µM | 29.1 µM | 16.7 µM | 34 µM | 22.1 µM | 73.8 µM | 6.06 µM | 39.7 µM | 3.62 µM | > 100 µM | 6.14 µM | 25.1 µM
Nc1ncnc2c1ccn2C1OC2COP(=O)(O)OC2C1O (stereo not given) | – | 8.06 µM | – | 9.11 µM | – | 12.2 µM | – | > 20.9 µM | – | > 100 µM | – | 20.2 µM | – | 29.5 µM | – | > 100 µM | – | > 100 µM | – | 1.59 µM
CC(C)(C(=O)NN)c1ccccc1 | – | > 100 µM | – | > 100 µM | – | > 100 µM | – | > 100 µM | – | > 100 µM | – | > 100 µM | – | > 100 µM | – | > 100 µM | – | > 100 µM | – | > 100 µM
CCCN1C(=O)/C(=c2\sc3n(c2=O)C2C(NN=3)N(CC)C(=O)N2CC)c2ccccc21 (stereo not given) | 0.959 µM | 19 µM | 1.22 µM | 14 µM | 1.41 µM | 12.4 µM | 0.89 µM | 16.5 µM | 0.396 µM | > 32.9 µM | 0.258 µM | 0.802 µM | 0.409 µM | 10.7 µM | 0.485 µM | 12.3 µM | 0.427 µM | 6.48 µM | 0.369 µM | 3.15 µM
CC12CCC(=O)C=C1CCC1C2CCC2(C)C(C(=O)Cn3cnc4c(=S)nc[nH]c43)CCC12 (stereo not given) | – | > 100 µM | – | > 100 µM | – | > 100 µM | – | > 100 µM | – | 36.7 µM | – | > 100 µM | – | 86.7 µM | – | > 100 µM | – | > 100 µM | – | > 100 µM
C=C(C)[C@@H]1CC=C(CO)CC1 | > 10 µM | > 10 µM and 709 µM | > 10 µM | > 10 µM and 1150 µM | – | > 10 µM | > 10 µM | > 10 µM and 943 µM | – | > 10 µM | > 10 µM | > 10 µM and 1120 µM | > 10 µM | > 10 µM and 941 µM | > 10 µM | > 10 µM and 806 µM | – | > 10 µM | > 10 µM | > 10 µM and 649 µM
Cc1ccc2[nH]c(C(=O)NN3C(=O)CSC34CCCCC4C)c(-c3ccccc3)c2c1 (stereo not given) | 17.2 µM | 37.4 µM | 16.8 µM | 31.8 µM | 17 µM | 34.5 µM | 17.3 µM | 37.9 µM | 14.9 µM | 39.2 µM | 19.5 µM | 38.4 µM | 16 µM | 31.9 µM | 16.8 µM | 32.7 µM | 13.8 µM | 35.2 µM | 15.1 µM | 31.3 µM
